Publication PMC12765074, “Mechanistic insights into enterocin C targeting the undecaprenyl phosphate recycling protein BacA” (The Journal of Biological Chemistry, 2025)
Marks after values point to notes of the source that are not given here.

What was measured:
[1] = biological target: T1, BacAef (Enterococcus faecalis, UniProt A0ACD6TE02); format: binding; settings: DSC, BacAef 33 μM + peptides 66 μM, 60 °C/h, representative of triplicate
Experimental: Thermal stability of BacA protein in different mixtures of peptides was performed by DSC on a MicroCal model VP-DSC (Malvern Panalytical, Malvern, UK). BacA (33 μM) was mixed with different mixtures of peptides at twice the BacA concentration (i.e. 66 μM). Each measurement was preceded by a baseline scan with the standard buffer. Scans were performed at 1 K/min (60 °C/h) temperature ramp between 30 °C and 100 °C. The heat capacity of the buffer was subtracted from that of the protein sample before analysis. The thermodynamic parameters were determined by fitting the data to the following equation: ΔCp(T)=Kd(T)ΔHcalΔHvH/[1+Kd(T)]^2RT^2 where Kd is the equilibrium constant for a two-state process, ΔHvH the enthalpy calculated based on a two-state process and ΔHcal the measured enthalpy.

[2] = biological target: T1, BacAef; assay: ITC, BacAef; format: binding; settings: ITC, 20 °C
Experimental: ITC experiments were performed with an ITC200 isothermal titration calorimeter from MicroCal (Malvern Panalytical, Malvern, UK). The experiments were carried out at 20 °C. The protein concentration in the microcalorimeter cell (0.2 ml) was 33 μM. Nineteen 2-μl injections of peptides at 400 μM were performed at intervals of 240 s while stirring at 500 rpm. To limit buffer mismatching effect between the cell and the syringe, and the heat-of-dilution effect for having glycerol in the protein solution, the latter were extensively dialyzed, prior to the ITC measurement, in a buffer containing 20 mM Tris-HCl pH 7.4, 200 mM NaCl, 0.1% DDM, to remove glycerol. Then, the dialysis buffer was used to dilute the EntC peptides to further limit buffer mismatching. The experimental data were fitted to theoretical titration curves with the software supplied by MicroCal (ORIGIN). This software uses the relationship between the heat generated by each injection and ΔH (enthalpy change in kcal/mol), Ka (the association binding constant in M^−1), n (the number of binding sites), total protein concentration and free and total ligand concentrations.

[3] = biological target: T1, BacAef; format: biochemical; settings: DDM micelles; 20 mM Tris-HCl pH 7.4, 400 μM CaCl2, 150 mM NaCl, 0.1% DDM, 50 μM [14C]C55-PP, 10 min, 37 °C, TLC; EntC vs EntC1 p-value = 0.0007; read-out: IC50, BacAef C55-PP phosphatase activity
[4] = biological target: T1, BacAef; assay: DSS crosslinking; format: binding; settings: BacAef and peptide 17 μM each, DSS 100- or 1000-fold excess, 30 min, 4 °C
Experimental: Crosslinking experiments were performed using the amine-reactive, membrane-permeable, and non-cleavable crosslinker disuccinimidyl suberate (DSS) purchased from Sigma. EntC peptides and BacA protein were mixed at equimolar concentrations (17 μM) in buffer D in the presence of an excess of DSS crosslinker (1000-fold or 100-fold) in a final reaction volume of 20 μl. The reaction was incubated for 30 min at 4°C, and any unreacted DSS was quenched with 50 mM Tris-HCl. After separation on a 12% acrylamide gel, proteins were electrotransferred onto polyvinylidene difluoride (PVDF) membrane, and BacA was detected using peroxidase-coupled anti-His tag antibody (Penta-His HRP conjugate from Qiagen, RRID: AB_3699318) by chemiluminescence detection (Western Lightning Plus-ECL, PerkinElmer) using the ChemiDoc MP system (Bio-Rad).

[5] = tested on: E. faecalis cells; assay: growth prevention in liquid culture; format: cell-based, Enterococcus faecalis
[6] = tested on: E. faecalis EfΔbacA cells expressing BacAef K209A D106A; assay: survival test; format: cell-based, Enterococcus faecalis; settings: 0.5 μM EntC, 30 min, 37 °C, p ≤ 0.01, three experiments

Enterocin C [EntC]
melting temperature (Tm) of BacAef ([1]; 30-100 °C, Tris-HCl pH 7.5, 0.1% DDM, BacAef alone 66.3 °C): 83.8 °C
enthalpy of denaturation (ΔH) of BacAef ([1]; BacAef alone 26.7 kcal/mol): 83.7 kcal/mol
-TΔS ([2]; into [BacAef] 33 μM): 14.1 kcal/mol
ΔG ([2]; into [BacAef] 33 μM): -9.0 kcal/mol
ΔH ([2]; into [BacAef] 33 μM): -23.1 kcal/mol
Kd ([2]; peptides 400 μM into [BacAef] 33 μM, 20 mM Tris-HCl pH 7.4, 200 mM NaCl, 0.1% DDM, at least triplicate): 196 ± 47 nM
n ([2]; peptides 400 μM into [BacAef] 33 μM, pH 7.4, 0.1% DDM, at least triplicate): 0.90 ± 0.01
IC50 [3]: 400 ± 100 nM
crosslinked complex band with BacAef (SDS-PAGE, western blot) [4]: two faint bands appeared above the BacA monomer
concentration required to prevent the growth of E. faecalis cells ([5]; BHI): 100 nM
concentration required to prevent the growth of E. faecalis cells ([5]; M17): 50 nM
concentration required to prevent the growth of E. faecalis cells ([5]; MRS): 2 nM
% of survival [6]: 14 ± 4.0 ^c %
